Assay results from ChEMBL document CHEMBL1141373 (J Med Chem, 2007).
The source made the active and inactive calls. The rule behind the calls is not given here.

Columns and labels:
[1] = target: T1, Glutamate receptor ionotropic, NMDA 2B (Homo sapiens, UniProt Q05586+Q13224); assay: Displacement of [3H](E)-N1-(2-methoxybenzyl)cinnamamidine from human NR2B expressed in Ltk- cells; assay type: cell-based
[2] = Oral bioavailability in rhesus monkey at 1 mg/kg, po; assay type: ADME, organism-based, Macaca mulatta; conditions: in vivo
Rattus norvegicus [3] = assay: Reversal of allodynia in rat spinal nerve ligation model at 3 mg/kg, iv; assay type: functional, organism-based; set-up: dose 3 mg/kg
Rattus norvegicus [4] = assay: Reversal of carrageenan-induced mechanical hyperalgesia in rat at 3 mg/kg, po in presence of morphine; assay type: functional, organism-based; set-up: dose 3 mg/kg
Rattus norvegicus [5] = assay: […] in rat measured as motor impairment upto 100 mg/kg, po by rotarod assay; assay type: functional, organism-based; set-up: dose 100 mg/kg
Rhesus monkey = assay: AUC in rhesus monkey at 1 mg/kg, iv; assay type: ADME, organism-based, Macaca mulatta, Plasma; set-up: dose 1 mg/kg, route intravenous; conditions: in vivo
Canis familiaris [6] = assay: AUC in Beagle dog at 1 mg/kg, iv; assay type: ADME, organism-based, Canis lupus familiaris, Plasma; set-up: dose 1 mg/kg, route intravenous; conditions: in vivo
Ltk- = assay: Activity at human NR1a expressed in Ltk- cells by patch clamp assay upto 30 uM; assay type: cell-based
[7] = Drug level in hyperalgesic rat plasma at 10 mg/kg, po after 1 hr; assay type: ADME, organism-based; set-up: dose 10 mg/kg, route oral
[8] = Ratio of drug level in brain against plasma in hyperalgesic rat
[9] = target: T1, Glutamate receptor ionotropic, NMDA 2B; assay: Antagonist activity at human NR2B expressed in Ltk- cells by calcium flux assay; assay type: functional, cell-based
[10] = Oral bioavailability in Sprague-Dawley rat at 10 mg/kg, po; assay type: ADME, organism-based; conditions: in vivo
[11] = target: Glutamate receptor ionotropic, NMDA 2D (Homo sapiens) (UniProt O15399); assay: Activity at human NR2D expressed in Ltk- cells by patch clamp assay upto 30 uM; assay type: cell-based
Rattus norvegicus [12] = assay: Plasma concentration in haloperidol-induced cataleptic rat at 30 mg/kg, po; assay type: ADME, organism-based; set-up: dose 30 mg/kg, route oral; conditions: in vivo
Rattus norvegicus [13] = assay: Reversal of allodynia in rat spinal nerve ligation model at 10 mg/kg, iv; assay type: functional, organism-based; set-up: dose 10 mg/kg
[14] = Cmax in rhesus monkey at 1 mg/kg, po; assay type: ADME, organism-based, Macaca mulatta; set-up: dose 1 mg/kg, route oral; conditions: in vivo
[15] = target: Glutamate receptor ionotropic, NMDA 2C (Homo sapiens) (UniProt Q14957); assay: Activity at human NR2C expressed in Ltk- cells by patch clamp assay upto 30 uM; assay type: cell-based
[16] = Half life in Beagle dog at 1 mg/kg, iv; assay type: ADME, organism-based, Canis lupus familiaris; set-up: dose 1 mg/kg, route intravenous; conditions: in vivo
[17] = Half life in rhesus monkey at 1 mg/kg, iv; assay type: ADME, organism-based, Macaca mulatta; set-up: dose 1 mg/kg, route intravenous; conditions: in vivo
Rattus norvegicus [18] = assay: Reversal of carrageenan-induced mechanical hyperalgesia in iv dosed rat after 15 mins; assay type: functional
[19] = target: Glutamate receptor ionotropic, NMDA 2A (Homo sapiens) (UniProt Q12879); assay: Activity at human NR2A expressed in Ltk- cells by patch clamp assay upto 30 uM; assay type: cell-based
[20] = Half life in Sprague-Dawley rat at 2 mg/kg, iv; assay type: ADME, organism-based; set-up: dose 2 mg/kg, route intravenous; conditions: in vivo
[21] = Cmax in Beagle dog at 1 mg/kg, po; assay type: ADME, organism-based, Canis lupus familiaris; set-up: dose 1 mg/kg, route oral; conditions: in vivo
[22] = Plasma protein binding in rat; assay type: ADME, cell-free; conditions: read-out: PPB (converted)
Rattus norvegicus [23] = assay: Reversal of carrageenan-induced mechanical hyperalgesia in rat at 10 mg/kg, po after 1 hr; assay type: functional
[24] = Drug level in hyperalgesic rat plasma at 1 mg/kg, po after 15 mins; assay type: ADME, organism-based; set-up: dose 1 mg/kg, route oral
[25] = Cmax in Sprague-Dawley rat at 10 mg/kg, po; assay type: ADME, organism-based; set-up: dose 10 mg/kg, route oral; conditions: in vivo
[26] = Oral bioavailability in Beagle dog at 1 mg/kg, po; assay type: ADME, organism-based, Canis lupus familiaris; conditions: in vivo
Rattus norvegicus [27] = assay: AUC in Sprague-Dawley rat at 2 mg/kg, iv; assay type: ADME, organism-based, Plasma; set-up: dose 2 mg/kg, route intravenous; conditions: in vivo
[28] = Drug level in hyperalgesic rat brain at 1 mg/kg, po after 15 mins; assay type: ADME, organism-based; set-up: dose 1 mg/kg, route oral; conditions: read-out: Drug uptake
[29] = Drug level in hyperalgesic rat brain at 10 mg/kg, po after 1 hr; assay type: ADME, organism-based; set-up: dose 10 mg/kg, route oral; conditions: read-out: Drug uptake
Rattus norvegicus [30] = assay: Effect on allodynia in rat spinal nerve ligation model at 30 mg/kg, po; assay type: functional, organism-based; set-up: dose 30 mg/kg
[31] = target: Glutamate receptor ionotropic, NMDA 2B (Rattus norvegicus) (UniProt Q00960); assay: Receptor occupancy ex vivo by displacement of [3H](E)-N1-(2-methoxybenzyl)-cinnamamidine binding from NR2B in rat brain at 10 uM; assay type: tissue-based
Rattus norvegicus [32] = assay: Reversal of carrageenan-induced mechanical hyperalgesia in rat at 3 mg/kg, po in presence of indomethacin; assay type: functional, organism-based; set-up: dose 3 mg/kg
Cytochrome P450 2D6 = Cytochrome P450 2D6 (Homo sapiens, UniProt P10635); assay: Inhibition of CYP2D6 in human liver microsomes
Cytochrome P450 3A4 = Cytochrome P450 3A4 (Homo sapiens, UniProt P08684); assay: Inhibition of CYP3A4 in human liver microsomes
Cytochrome P450 2C9 = Cytochrome P450 2C9 (Homo sapiens, UniProt P11712)
Description: Inhibition of CYP2C9 in human liver microsomes

[33] = Drug level in rat brain at 30 mg/kg, po after 1 hr; assay type: ADME, organism-based; set-up: dose 30 mg/kg, route oral; conditions: read-out: Drug uptake
[34] = Plasma concentration in rat at 30 mg/kg, po after 1 hr; assay type: ADME, organism-based; set-up: dose 30 mg/kg, route oral
[35] = target: Voltage-gated inwardly rectifying potassium channel KCNH2 (Homo sapiens, UniProt Q12809)
Description: Displacement of [35S]MK-499 from hERG potassium channel expressed in HEK293 cells

[36] = target: Glutamate receptor ionotropic, NMDA 2A (Homo sapiens, UniProt Q05586+Q12879); assay: Activity at human NR2A expressed in Ltk- cells by calcium flux assay; assay type: cell-based
[37] = Half life in Beagle dog at 0.5 mg/kg, iv; assay type: ADME, organism-based, Canis lupus familiaris; set-up: dose 0.5 mg/kg, route intravenous; conditions: in vivo
Homo sapiens = species on record: Homo sapiens; assay: Selectivity for human NR2B over hERG
Rattus norvegicus [38] = assay: Reversal of carrageenan-induced mechanical hyperalgesia in po dosed rat; assay type: functional
Canis familiaris [39] = assay: AUC in Beagle dog at 0.5 mg/kg, iv; assay type: ADME, organism-based, Canis lupus familiaris, Plasma; set-up: dose 0.5 mg/kg, route intravenous; conditions: in vivo
Rattus norvegicus [40] = assay: Reversal of carrageenan-induced mechanical hyperalgesia in iv dosed rat; assay type: functional

Chain of Cytochrome P450 2C9 (P11712 whole entry): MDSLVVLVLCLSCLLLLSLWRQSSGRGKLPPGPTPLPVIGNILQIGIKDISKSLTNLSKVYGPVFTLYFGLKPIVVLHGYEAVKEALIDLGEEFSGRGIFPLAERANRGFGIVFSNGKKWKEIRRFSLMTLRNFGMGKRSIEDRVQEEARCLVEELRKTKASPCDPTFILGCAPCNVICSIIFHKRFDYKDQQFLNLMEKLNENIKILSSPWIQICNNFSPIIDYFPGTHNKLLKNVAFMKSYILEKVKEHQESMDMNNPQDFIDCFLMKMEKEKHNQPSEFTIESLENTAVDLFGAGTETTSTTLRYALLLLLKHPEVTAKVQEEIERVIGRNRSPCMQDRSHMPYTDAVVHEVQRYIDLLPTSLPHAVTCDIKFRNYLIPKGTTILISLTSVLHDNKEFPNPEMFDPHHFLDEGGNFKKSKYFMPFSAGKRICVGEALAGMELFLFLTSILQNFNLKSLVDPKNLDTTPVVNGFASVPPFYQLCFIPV
Chain of Cytochrome P450 3A4 (P08684 whole entry): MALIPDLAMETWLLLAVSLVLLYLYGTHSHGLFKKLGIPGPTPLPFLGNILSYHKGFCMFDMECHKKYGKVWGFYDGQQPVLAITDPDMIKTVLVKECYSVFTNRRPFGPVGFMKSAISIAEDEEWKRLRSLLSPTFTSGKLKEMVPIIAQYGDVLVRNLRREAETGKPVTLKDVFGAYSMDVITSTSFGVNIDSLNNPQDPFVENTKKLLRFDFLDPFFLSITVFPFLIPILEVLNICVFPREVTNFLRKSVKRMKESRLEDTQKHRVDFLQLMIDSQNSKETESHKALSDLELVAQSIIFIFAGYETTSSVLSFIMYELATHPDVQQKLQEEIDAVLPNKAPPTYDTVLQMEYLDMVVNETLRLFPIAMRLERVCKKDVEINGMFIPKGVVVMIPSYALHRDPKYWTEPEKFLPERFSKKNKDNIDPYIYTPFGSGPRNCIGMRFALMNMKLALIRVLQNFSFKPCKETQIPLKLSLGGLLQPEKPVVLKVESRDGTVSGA
T1 sequence (Q13224 whole entry, one chain of several): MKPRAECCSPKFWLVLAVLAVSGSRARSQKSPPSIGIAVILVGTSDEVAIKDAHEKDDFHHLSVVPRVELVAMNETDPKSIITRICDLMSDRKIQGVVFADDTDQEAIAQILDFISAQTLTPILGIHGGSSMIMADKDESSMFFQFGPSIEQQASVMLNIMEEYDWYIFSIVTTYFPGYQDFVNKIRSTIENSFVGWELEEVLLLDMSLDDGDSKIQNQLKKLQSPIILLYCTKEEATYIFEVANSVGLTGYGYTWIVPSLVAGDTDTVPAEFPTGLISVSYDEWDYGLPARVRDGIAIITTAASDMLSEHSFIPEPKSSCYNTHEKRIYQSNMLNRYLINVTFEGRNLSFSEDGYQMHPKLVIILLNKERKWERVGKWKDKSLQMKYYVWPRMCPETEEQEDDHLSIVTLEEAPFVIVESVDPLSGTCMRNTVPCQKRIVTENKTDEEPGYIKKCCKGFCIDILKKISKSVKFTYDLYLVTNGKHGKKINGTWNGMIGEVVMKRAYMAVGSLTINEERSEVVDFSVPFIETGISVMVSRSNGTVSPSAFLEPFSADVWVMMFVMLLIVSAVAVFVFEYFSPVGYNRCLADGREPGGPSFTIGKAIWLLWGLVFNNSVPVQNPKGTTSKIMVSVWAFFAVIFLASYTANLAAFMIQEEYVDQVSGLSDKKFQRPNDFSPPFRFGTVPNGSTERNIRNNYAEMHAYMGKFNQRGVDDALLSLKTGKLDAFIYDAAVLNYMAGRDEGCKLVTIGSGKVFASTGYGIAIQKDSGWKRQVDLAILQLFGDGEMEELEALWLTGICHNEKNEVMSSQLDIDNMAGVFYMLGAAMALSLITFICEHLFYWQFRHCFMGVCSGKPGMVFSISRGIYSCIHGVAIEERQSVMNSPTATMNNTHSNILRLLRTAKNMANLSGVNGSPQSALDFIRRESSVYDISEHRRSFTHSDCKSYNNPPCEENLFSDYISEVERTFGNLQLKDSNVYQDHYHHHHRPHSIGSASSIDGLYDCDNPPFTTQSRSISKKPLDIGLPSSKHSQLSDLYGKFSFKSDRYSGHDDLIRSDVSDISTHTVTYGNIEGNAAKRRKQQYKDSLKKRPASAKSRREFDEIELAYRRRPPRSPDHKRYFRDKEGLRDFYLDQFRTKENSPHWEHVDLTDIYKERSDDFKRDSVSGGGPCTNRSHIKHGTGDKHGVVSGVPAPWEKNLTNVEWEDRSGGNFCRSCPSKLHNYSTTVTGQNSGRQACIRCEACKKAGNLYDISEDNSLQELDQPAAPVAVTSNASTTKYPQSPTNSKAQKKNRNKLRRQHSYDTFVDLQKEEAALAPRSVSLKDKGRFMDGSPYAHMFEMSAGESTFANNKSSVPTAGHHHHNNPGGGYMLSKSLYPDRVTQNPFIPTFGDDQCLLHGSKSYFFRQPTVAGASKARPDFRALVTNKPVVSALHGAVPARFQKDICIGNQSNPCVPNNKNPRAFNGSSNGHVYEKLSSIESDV
Chain of Cytochrome P450 2D6 (P10635 whole entry): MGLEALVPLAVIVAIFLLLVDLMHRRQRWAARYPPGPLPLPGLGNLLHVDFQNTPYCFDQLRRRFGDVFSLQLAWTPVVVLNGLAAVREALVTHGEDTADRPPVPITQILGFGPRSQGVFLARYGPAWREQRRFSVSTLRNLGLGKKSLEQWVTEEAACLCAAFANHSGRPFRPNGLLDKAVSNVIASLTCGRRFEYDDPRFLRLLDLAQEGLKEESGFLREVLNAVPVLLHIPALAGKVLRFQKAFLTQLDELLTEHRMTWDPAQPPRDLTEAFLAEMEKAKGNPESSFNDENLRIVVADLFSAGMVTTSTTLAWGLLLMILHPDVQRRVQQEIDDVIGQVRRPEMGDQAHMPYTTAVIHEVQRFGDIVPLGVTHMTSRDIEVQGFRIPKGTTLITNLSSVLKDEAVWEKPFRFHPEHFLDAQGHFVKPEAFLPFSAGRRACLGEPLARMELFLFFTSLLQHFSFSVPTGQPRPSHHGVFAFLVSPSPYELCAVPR
Chain of Glutamate receptor ionotropic, NMDA 2A (Q12879 whole entry, one chain of several): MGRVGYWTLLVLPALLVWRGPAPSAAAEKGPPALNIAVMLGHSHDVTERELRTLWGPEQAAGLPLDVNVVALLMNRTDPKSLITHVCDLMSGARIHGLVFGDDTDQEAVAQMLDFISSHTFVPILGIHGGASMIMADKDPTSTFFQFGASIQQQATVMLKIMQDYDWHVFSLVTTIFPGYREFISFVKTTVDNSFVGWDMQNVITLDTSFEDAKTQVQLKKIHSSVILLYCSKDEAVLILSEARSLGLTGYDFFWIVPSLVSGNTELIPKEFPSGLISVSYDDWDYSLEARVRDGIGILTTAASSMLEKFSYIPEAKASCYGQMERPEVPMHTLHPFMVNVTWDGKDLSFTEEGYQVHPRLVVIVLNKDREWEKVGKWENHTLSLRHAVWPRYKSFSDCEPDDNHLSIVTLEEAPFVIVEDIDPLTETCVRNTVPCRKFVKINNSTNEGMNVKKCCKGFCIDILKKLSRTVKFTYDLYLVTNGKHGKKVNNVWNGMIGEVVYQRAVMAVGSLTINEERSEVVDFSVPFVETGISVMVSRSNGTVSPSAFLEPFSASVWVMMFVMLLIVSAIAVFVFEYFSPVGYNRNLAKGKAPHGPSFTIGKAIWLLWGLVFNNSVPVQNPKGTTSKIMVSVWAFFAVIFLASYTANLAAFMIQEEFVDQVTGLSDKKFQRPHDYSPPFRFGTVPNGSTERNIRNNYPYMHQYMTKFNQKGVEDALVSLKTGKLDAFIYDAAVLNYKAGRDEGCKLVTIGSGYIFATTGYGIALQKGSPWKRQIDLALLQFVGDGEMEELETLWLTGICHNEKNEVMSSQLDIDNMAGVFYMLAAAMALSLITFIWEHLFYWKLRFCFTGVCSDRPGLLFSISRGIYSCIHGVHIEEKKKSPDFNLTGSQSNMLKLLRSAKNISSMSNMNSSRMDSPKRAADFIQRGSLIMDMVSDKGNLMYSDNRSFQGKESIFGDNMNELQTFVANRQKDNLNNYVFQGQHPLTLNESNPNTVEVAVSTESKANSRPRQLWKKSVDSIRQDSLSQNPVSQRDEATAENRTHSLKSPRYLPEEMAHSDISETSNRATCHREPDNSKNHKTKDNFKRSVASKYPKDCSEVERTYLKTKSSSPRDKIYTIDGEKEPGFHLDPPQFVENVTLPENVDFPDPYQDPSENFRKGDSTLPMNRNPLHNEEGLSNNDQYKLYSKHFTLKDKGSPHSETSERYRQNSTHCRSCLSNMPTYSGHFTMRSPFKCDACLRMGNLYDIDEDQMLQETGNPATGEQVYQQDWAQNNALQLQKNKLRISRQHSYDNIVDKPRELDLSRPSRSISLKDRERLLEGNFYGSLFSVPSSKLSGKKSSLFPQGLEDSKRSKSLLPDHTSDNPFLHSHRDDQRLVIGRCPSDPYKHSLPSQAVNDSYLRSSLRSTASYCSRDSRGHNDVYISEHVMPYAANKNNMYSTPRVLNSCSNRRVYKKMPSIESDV

## O=C(OC1Cc2ccccc2C1)N1CCC(CNc2ncccn2)CC1
[1]
  Ki: 0.023 µM

## O=C(NCc1ccccc1)N1CCC(CNc2ncccn2)CC1
[1]
  Ki: 1.17 µM

## Cc1cccc(COC(=O)N2CCC(CNc3ncccn3)CC2)c1
[1]
  Ki: 0.206 µM

## O=C(OCc1ccccc1)N1CCC(Cc2nc3ccccc3[nH]2)CC1
[1]
  Ki: 0.22 µM

## CC(C)(C)c1ccc(COC(=O)N2CCC(CNc3ncccn3)CC2)cc1
[1]
  Ki: 0.72 µM

## CC(OC(=O)N1CCC(CNc2ncccn2)CC1)c1ccccc1 (racemic)
[1]
  Ki: 0.54 µM

## O=C(OCc1ccccc1F)N1CCC(CNc2ncccn2)CC1
[1]
  Ki: 0.018 µM

## O=C(CCc1ccccc1)N1CCC(CNc2ncccn2)CC1
[1]
  Ki: 0.31 µM

## N#CN=C(NCc1ccccc1)NN1CCC(CNc2ncccn2)CC1
[1]
  Ki: 3.1 µM

## Cc1ccc(COC(=O)N2CCC(CNc3ncccn3)CC2)cc1
[2]
  bioavailability: 26%
Rattus norvegicus [3]
  Activity: Active
Rattus norvegicus [4]
  Activity: Active
Rattus norvegicus [5]
  Activity: inactive
Rhesus monkey
  AUC: 5.2 µM·h
Canis familiaris [6]
  AUC: 7.5 µM·h
Ltk-
  Activity: < 30%
[7]
  concentration at 1 h: 1.8 µM
[8]
  Kp: 1.4
[1]
  Ki: 0.0034 µM
[9]
  EC50: 0.0056 µM
[10]
  bioavailability: 45%
[11]
  Activity: < 30%
Rattus norvegicus [12]
  concentration: 10.2 µM
Rattus norvegicus [13]
  Activity: Active
[14]
  Cmax: 0.6 µM
[15]
  Activity: < 30%
[16]
  half-life: 6.9 h
[17]
  half-life: 2.2 h
Rattus norvegicus [18]
  ED50: 1 mg/kg
[19]
  Activity: < 30%
[20]
  half-life: 2.7 h
[21]
  Cmax: 0.84 µM
[22]
  fraction unbound: 0.153
Rattus norvegicus [23]
  Activity: 50%
[24]
  concentration at […]: 0.96 µM
[25]
  Cmax: 3.9 µM
[26]
  bioavailability: 24%
Rattus norvegicus [27]
  AUC: 7.1 µM·h
[28]
  concentration at […]: 0.51 µM
[29]
  concentration at 1 h: 0.85 µM
Rattus norvegicus [30]
  Activity: Active
[31]
  Activity: Active
Rattus norvegicus [32]
  Activity: Active

## Cc1ccccc1COC(=O)N1CCC(CNc2ncccn2)CC1
[1]
  Ki: 0.227 µM

## Cc1ccc(COC(=O)N2CCC(Nc3ncccn3)CC2)cc1
[1]
  Ki: > 15 µM

## O=C(OCc1cccc(F)c1)N1CCC(CNc2ncccn2)CC1
[1]
  Ki: 0.15 µM

## CC(C)c1ccc(COC(=O)N2CCC(CNc3ncccn3)CC2)cc1
[1]
  Ki: 0.0078 µM

## Cc1ccc(COC(=O)N2CCC(COc3ncccn3)CC2)cc1
[1]
  Ki: 7.4 µM

## CCc1ccc(COC(=O)N2CCC(CNc3ncccn3)CC2)cc1
[1]
  Ki: 0.0037 µM

## c1ccc(CCCN2CCC(CNc3ncccn3)CC2)cc1
[1]
  Ki: 0.266 µM

## O=C(OCCc1ccccc1)N1CCC(CNc2ncccn2)CC1
[1]
  Ki: 0.227 µM

## O=C(OCc1ccccc1)N1CCC(CNc2cnccn2)CC1
[1]
  Ki: 0.014 µM
Cytochrome P450 2D6
  IC50: 1.7 µM
Cytochrome P450 3A4
  IC50: 22 µM
Cytochrome P450 2C9
  IC50: 12 µM

## O=C(OCc1ccc(F)cc1)N1CCC(CNc2ncccn2)CC1
[1]
  Ki: 0.018 µM

## O=C(OCc1ccccc1)N1CCC(CNc2ccccn2)CC1
[1]
  Ki: 0.037 µM
[33]
  concentration at 1 h: 0.17 µM
[34]
  concentration at 1 h: 0.18 µM
Cytochrome P450 2D6
  IC50: > 25 µM
Cytochrome P450 3A4
  IC50: > 25 µM
Cytochrome P450 2C9
  IC50: > 25 µM

## Cc1ccc(COC(=O)N2CCC(CN(C)c3ncccn3)CC2)cc1
[1]
  Ki: 2.1 µM

## c1ccc(COc2ccc(CCNc3ccncc3)cc2)cc1
[1]
  Ki: 0.093 µM
[9]
  IC50: 0.102 µM
[35]
  IC50: 0.13 µM
[36]
  IC50: > 20 µM

## COc1ccc(COC(=O)N2CCC(CNc3ncccn3)CC2)cc1
[1]
  Ki: 0.46 µM

## O=C(OCc1ccccc1)N1CCC(CNc2cccnc2)CC1
[1]
  Ki: 0.18 µM
Cytochrome P450 2D6
  IC50: 1.7 µM
Cytochrome P450 3A4
  IC50: 9.1 µM
Cytochrome P450 2C9
  IC50: 12 µM

## O=C(OCc1ccccc1)N1CCC(CNc2ncccn2)CC1
[1]
  Ki: 0.023 µM
[33]
  concentration at 1 h: 3.1 µM
[34]
  concentration at 1 h: 7.2 µM
Cytochrome P450 2D6
  IC50: > 25 µM
Cytochrome P450 3A4
  IC50: > 25 µM
Cytochrome P450 2C9
  IC50: > 25 µM

## O=C(OCc1ccccc1)N1CCC(CNc2ccncn2)CC1
[1]
  Ki: 0.075 µM
[33]
  concentration at 1 h: 0.7 µM
[34]
  concentration at 1 h: 1.1 µM
Cytochrome P450 2D6
  IC50: 1.3 µM
Cytochrome P450 2C9
  IC50: 0.5 µM

## O=C(OCc1ccccc1)N1CCC(CNc2nccs2)CC1
[1]
  Ki: 0.122 µM
Cytochrome P450 2D6
  IC50: > 10 µM
Cytochrome P450 3A4
  IC50: > 10 µM
Cytochrome P450 2C9
  IC50: > 10 µM

## O=C(OCc1ccccc1)N1CCC(CNc2ccncc2)CC1
[37]
  half-life: 6.5 h
Homo sapiens
  Selectivity ratio: 90
Rattus norvegicus [38]
  ED50: 10 mg/kg
Canis familiaris [39]
  AUC: 1.7 µM·h
[1]
  Ki: 0.0106 µM
[9]
  EC50: 0.0016 µM
[10]
  bioavailability: > 100%
Rattus norvegicus [40]
  ED50: 3 mg/kg
[33]
  concentration at 1 h: 11 µM
[34]
  concentration at 1 h: 8.1 µM
[20]
  half-life: 1.4 h
Cytochrome P450 2D6
  IC50: 15 µM
[21]
  Cmax: 0.05 µM
[25]
  Cmax: 5.2 µM
Cytochrome P450 3A4
  IC50: > 25 µM
[26]
  bioavailability: 11%
Rattus norvegicus [27]
  AUC: 1.9 µM·h
Cytochrome P450 2C9
  IC50: 6.5 µM
[36]
  EC50: > 10 µM

## O=C(OCc1ccccc1)N1CCC(CNc2nncs2)CC1
[1]
  Ki: 0.19 µM
Cytochrome P450 2D6
  IC50: > 25 µM
